# In ChEMBL document CHEMBL5107984, “The untapped potential of spermidine alkaloids: Sources, structures, bioactivities and syntheses” (Eur J Med Chem, 2022):
# Legend:
# [1] = biological target: Cholesterol 24-hydroxylase (Homo sapiens, UniProt Q9Y6A2); assay: Inhibition of CYP46A1 (unknown origin); assay type: ADME
# [2] = Antioxidant activity assessed as trolox equivalent of ORAC radical scavenging activity by ORAC assay; assay type: functional
# [3] = biological target: Cholinesterase (Homo sapiens) (UniProt P06276); assay: Inhibition of human BChE at 800 uM using butyrylthiocholine iodide as substrate incubated for 10 mins by Ellman's method
# SARS-CoV-2 = assay: Antiviral activity against SARS-CoV-2; assay type: functional, Severe acute respiratory syndrome coronavirus 2
# [4] = biological target: Sodium-dependent serotonin transporter (Rattus norvegicus, UniProt P31652); assay: Displacement of [3H]-5HT from rat SERT expressed in CHO cells incubated for 20 mins by liquid scintillation analysis; assay type: cell-based
# [5] = Inhibition of 5HT uptake in Sprague-Dawley rat brain Synaptosome; assay type: subcellular
# Sequence of Cholesterol 24-hydroxylase (Q9Y6A2 whole entry): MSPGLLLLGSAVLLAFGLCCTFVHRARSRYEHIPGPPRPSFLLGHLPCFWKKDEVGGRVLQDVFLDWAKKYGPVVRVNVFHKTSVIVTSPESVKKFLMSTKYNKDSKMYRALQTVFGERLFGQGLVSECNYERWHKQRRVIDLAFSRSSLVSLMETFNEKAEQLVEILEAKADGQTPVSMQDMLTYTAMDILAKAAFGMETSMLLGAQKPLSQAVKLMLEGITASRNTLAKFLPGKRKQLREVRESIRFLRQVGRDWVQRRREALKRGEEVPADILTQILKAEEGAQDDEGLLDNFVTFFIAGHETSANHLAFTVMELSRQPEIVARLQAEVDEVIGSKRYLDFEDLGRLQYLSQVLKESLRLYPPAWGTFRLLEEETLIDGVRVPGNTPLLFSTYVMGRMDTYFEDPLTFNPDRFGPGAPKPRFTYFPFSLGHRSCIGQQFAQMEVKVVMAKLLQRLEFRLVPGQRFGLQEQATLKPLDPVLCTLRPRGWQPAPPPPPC
# Sequence of Cholinesterase (Homo sapiens) (P06276 whole entry): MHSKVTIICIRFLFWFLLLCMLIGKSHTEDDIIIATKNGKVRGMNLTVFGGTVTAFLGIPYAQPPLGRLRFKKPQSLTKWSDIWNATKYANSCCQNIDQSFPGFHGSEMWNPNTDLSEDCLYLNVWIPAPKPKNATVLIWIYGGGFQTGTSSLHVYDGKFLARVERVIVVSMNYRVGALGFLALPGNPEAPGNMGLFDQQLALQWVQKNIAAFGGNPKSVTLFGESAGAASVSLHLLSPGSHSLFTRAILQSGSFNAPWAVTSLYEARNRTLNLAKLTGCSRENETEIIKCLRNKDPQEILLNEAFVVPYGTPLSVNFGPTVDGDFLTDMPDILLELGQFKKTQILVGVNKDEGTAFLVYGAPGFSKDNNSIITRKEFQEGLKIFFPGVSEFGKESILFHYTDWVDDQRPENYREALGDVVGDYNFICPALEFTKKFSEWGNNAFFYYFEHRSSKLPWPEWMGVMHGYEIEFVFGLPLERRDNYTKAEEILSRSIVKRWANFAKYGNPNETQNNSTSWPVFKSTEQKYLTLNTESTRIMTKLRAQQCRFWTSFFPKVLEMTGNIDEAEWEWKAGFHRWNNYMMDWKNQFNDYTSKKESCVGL
# Sequence of Sodium-dependent serotonin transporter (P31652 whole entry): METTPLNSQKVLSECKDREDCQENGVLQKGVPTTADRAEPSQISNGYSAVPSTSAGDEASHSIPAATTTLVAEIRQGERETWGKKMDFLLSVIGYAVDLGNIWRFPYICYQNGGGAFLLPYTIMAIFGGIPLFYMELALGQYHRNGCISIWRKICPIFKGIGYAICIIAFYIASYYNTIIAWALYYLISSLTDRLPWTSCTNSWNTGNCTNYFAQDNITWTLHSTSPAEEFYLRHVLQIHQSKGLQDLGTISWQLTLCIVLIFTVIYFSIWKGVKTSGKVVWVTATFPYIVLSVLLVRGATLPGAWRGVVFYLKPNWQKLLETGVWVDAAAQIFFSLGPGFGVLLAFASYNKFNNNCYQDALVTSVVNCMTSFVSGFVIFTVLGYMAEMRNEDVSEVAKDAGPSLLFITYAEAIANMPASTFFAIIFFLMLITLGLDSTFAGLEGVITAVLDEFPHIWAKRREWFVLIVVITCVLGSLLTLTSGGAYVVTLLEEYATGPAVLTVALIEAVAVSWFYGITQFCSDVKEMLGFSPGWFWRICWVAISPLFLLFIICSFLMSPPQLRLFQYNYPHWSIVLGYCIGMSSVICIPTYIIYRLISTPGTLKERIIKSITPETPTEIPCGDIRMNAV
smiles,measurement,setting,value
O=C(/C=C/c1ccc(O)c(O[C@@H]2O[C@H](CO)[C@@H](O)[C@H](O)[C@H]2O)c1)NCCCNCCCCNC(=O)CCc1ccc(O)c(O)c1,Ki,[1],12.9 nM
O=C1CCc2cc(O)c(O)cc2[C@H](c2ccc(O)c(O)c2)CC(=O)NCCCCNCCCN1,Activity,[2],2.37 µM
same,inhibition,[3],18.1%
NCCCCNCCCN [SPERMIDINE],inhibition (INH),SARS-CoV-2,85%
O=C(/C=C/c1ccc(O)cc1)NCCCCN(CCCNC(=O)/C=C/c1ccc(O)cc1)C(=O)/C=C\c1ccc(O)cc1,IC50,[4],740 nM
same,IC50,[5],1070 nM
O=C(/C=C/c1ccc(O)c(O)c1)NCCCNCCCCNC(=O)CCc1ccc(O[C@@H]2O[C@H](CO)[C@@H](O)[C@H](O)[C@H]2O)c(O)c1,Ki,[1],258 nM
O=C(/C=C/c1ccc(O[C@@H]2O[C@H](CO)[C@@H](O)[C@H](O)[C@H]2O)c(O)c1)NCCCNCCCCNC(=O)CCc1ccc(O)c(O)c1,Ki,[1],106 nM
O=C1CCc2cc(O)c(O)cc2[C@@H](c2ccc(O)c(O)c2)CC(=O)NCCCCNCCCN1,Activity,[2],2.68 µM
same,inhibition,[3],37.8%
